In ChEMBL document CHEMBL1201862, “PubChem BioAssay data set” (2004):
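Assay format: 96-well plates, 48-hour exposure. GI50: concentration for 50% inhibition of growth.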 Active and inactive are the calls of the source. No stated cut-off is given here; in the data, active = GI50 up to about 1.1 µM and inactive = higher.

Key:
Assay in all cases: DTP human tumour cell line panel, 48 h
[1] = system: SNB-75
[2] = system: RXF 393
[3] = system: SK-MEL-2
[4] = system: 786-0
[5] = system: A549
[6] = system: NCI-H460
[7] = system: SW-620
[8] = system: UACC-257
[9] = system: Malme-3M
[10] = system: DMS-273
[11] = system: XF498
[12] = system: SF-295
[13] = system: M19-MEL
[14] = system: NCI-H226
[15] = system: COLO 205
[16] = system: M14
[17] = system: SF-268
[18] = system: OVCAR-4
[19] = system: LOX IMVI
[20] = system: UACC-62
[21] = system: KM12
[22] = system: IGROV-1
[23] = system: OVCAR-3
[24] = system: HT-29
[25] = system: CCRF-CEM
[26] = system: SF-539
[27] = system: SN12C
[28] = system: HCT-15
[29] = system: U-251
[30] = system: HOP-62
[31] = system: K562
[32] = system: CAKI-1
[33] = system: UO-31
[34] = system: DMS-114
[35] = system: NCI-H522
[36] = system: LXFL 529
[37] = system: SNB-19
[38] = system: SK-OV-3
[39] = system: MOLT-4
[40] = system: SNB-78
[41] = system: SK-MEL-28
[42] = system: OVCAR-5
[43] = system: EKVX
[44] = system: ACHN
[45] = system: HOP-92
[46] = system: RXF 631
[47] = system: HL-60
[48] = system: TK-10
[49] = system: RPMI-8226
[50] = system: OVCAR-8
[51] = system: SK-MEL-5

Measured: GI50

Nc1n[n+]([O-])c2ccccc2[n+]1[O-] [TIRAPAZAMINE]
> 100 µM: [28]
inactive: [1] 29.6 µM | [2] 57.5 µM | [3] > 100 µM | [4] > 100 µM | [5] 93.5 µM | [6] 49.7 µM | [7] > 100 µM | [8] 72.4 µM | [9] 50.4 µM | [10] 52.2 µM | [11] 44.4 µM | [12] > 100 µM | [13] 95.9 µM | [14] > 100 µM | [15] > 100 µM | [16] > 100 µM | [17] > 100 µM | [18] > 100 µM | [19] > 100 µM | [20] 61.7 µM | [21] > 100 µM | [22] 75.5 µM | [23] > 100 µM | [24] > 100 µM | [25] > 100 µM | [26] > 100 µM | [27] > 100 µM | [29] > 100 µM | [30] 53.1 µM | [31] > 100 µM | [32] 46.2 µM | [33] > 100 µM | [34] 44.4 µM | [35] 99.8 µM | [36] > 100 µM | [37] > 100 µM | [38] 73.1 µM | [39] 37.4 µM | [40] > 100 µM | [41] > 100 µM | [42] > 100 µM | [43] > 100 µM | [44] 48.6 µM | [45] 29.7 µM | [46] > 100 µM | [47] > 100 µM | [48] > 100 µM | [49] 57.4 µM | [50] > 100 µM | [51] 40.5 µM
